According to ChEMBL document CHEMBL5634151, “Anti-adipogenic action of a novel oxazole derivative through activation of AMPK pathway” (Eur J Med Chem, 2023):
The source made the active and inactive calls. The calls are words filed in the database; no cut-off is given here.

Key:
3T3-L1 [1] = test: Induction of proton leak during early phase in MDI-cocktail differentiated mouse 3T3-L1 pre-adipocyte cells 5 uM incubated for 72 hrs by Seahorse XFp flux analyzer; format: functional, cell-based
3T3-L1 [2] = test: Induction of mitochondrial respiration in MDI-cocktail differentiated mouse 3T3-L1 pre-adipocyte cells assessed as increase in oxygen consumption rate at 5 uM incubated for 72 hrs in presence of rotenone/antimycin A mixture by Seahorse XFp flux analyzer; format: functional, cell-based
Syrian golden hamster [3] = test: Anti-obesity activity in high-fat diet induced Syrian golden hamster model assessed as rescue of normal eWAT weight at 25 to 50 mg/kg, po administered for 7 days; format: functional, organism-based; details: Mesocricetus auratus, dose 25-50 mg/kg, time 7.0 day
Syrian golden hamster [4] = test: Anti-obesity activity in high-fat diet induced Syrian golden hamster model assessed as reduction in fat mass at 50 mg/kg, po administered for 7 days by 1H NMR spectroscopy-based Echo MRI system; format: functional, organism-based; details: Mesocricetus auratus, time 7.0 day
3T3-L1 [5] = test: Upregulation of CIII-UQCRC2 protein expression in mouse 3T3-L1 mature adipocytes at 1 to 5 uM incubated for 24 hrs by Western blot analysis; format: functional, cell-based; details: dose 1-5 µM
3T3-L1 [6] = test: Induction of cell cycle arrest in MDI-cocktail differentiated mouse 3T3-L1 pre-adipocyte cells assessed as accumulation of cells at G1 phase at 3 to 5 uM incubated for 16 hrs by propidium iodide staining based flow cytometry analysis; format: functional; details: dose 3-5 µM
3T3-L1 [7] = test: Anti-adipogenic activity in MDI-cocktail differentiated mouse 3T3-L1 pre-adipocyte cells assessed as reduction in C/EBPalpha protein expression at 5 uM measured for 3 to 7 days by immunoblotting analysis; format: functional, cell-based; details: time 3-7 day
3T3-L1 [8] = test: Inhibition of MDI-cocktail induced adipogenic differentiation in mouse 3T3-L1 pre-adipocyte cells assessed as increase in AMPK phosphorylation at Thr172 residue by Western blot analysis; format: functional, cell-based; details: dose 0.5-5 µM
Syrian golden hamster [9] = test: Anti-obesity activity in high-fat diet induced Syrian golden hamster model assessed as reduction in lipid accumulation in liver cells at 50 mg/kg, po administered for 7 days by H and E staining based inverted microscopic analysis; format: functional, organism-based; details: Mesocricetus auratus, time 7.0 day
C3H 10T1/2 [10] = test: Anti-adipogenic activity in MDI-cocktail differentiated mouse C3H 10T1/2 cells assessed as reduction in adipogenic differentiation at 5 uM measured after 3 to 7 days by Oil Red O staining based microscopic analysis; format: functional, cell-based; details: time 3-7 day
3T3-L1 [11] = test: Anti-adipogenic activity in MDI-cocktail differentiated mouse 3T3-L1 pre-adipocyte cells assessed as inhibition of adipogenesis at 20 uM by Oil Red O staining based microscopic analysis relative to control; format: functional
Syrian golden hamster [12] = test: Anti-dyslipidaemic activity in high-fat diet induced Syrian golden hamster model assessed as assessed as reduction in serum LDL-cholesterol level at 25 to 50 mg/kg, po administered for 7 days; format: functional, organism-based; details: Mesocricetus auratus, dose 25-50 mg/kg, time 7.0 day
C3H 10T1/2 [13] = test: Inhibition of MDI-cocktail induced adipogenic differentiation in mouse C3H 10T1/2 cells assessed as inhibition of lipid accumulation by Oil Red O staining based microscopic analysis; format: functional, cell-based; details: dose 0.5-20 µM
3T3-L1 [14] = test: Anti-adipogenic activity in MDI-cocktail differentiated mouse 3T3-L1 pre-adipocyte cells assessed as reduction in adipogenic differentiation at 5 uM measured after 5 to 7 days by Oil Red O staining based microscopic analysis; format: functional, cell-based; details: time 5-7 day
3T3-L1 [15] = test: Induction of cell cycle arrest in MDI-cocktail differentiated mouse 3T3-L1 pre-adipocyte cells assessed as accumulation of cells at S phase at 3 to 5 uM incubated for 24 hrs by propidium iodide staining based flow cytometry analysis; format: functional; details: dose 3-5 µM
3T3-L1 [16] = test: Induction of ATP production during early phase in MDI-cocktail differentiated mouse 3T3-L1 pre-adipocyte cells 5 uM incubated for 72 hrs by Seahorse XFp flux analyzer; format: functional, cell-based
3T3-L1 [17] = test: Activation of AMPK pathway in mouse 3T3-L1 mature adipocyte cells assessed as reversal of 6-(4-(2-(piperidin-1-yl)ethoxy)phenyl)-3-(pyridin-4yl)pyrazolo[1,5-a]pyrimidine induced AMPK inhibition at 5 uM incubated for 24 hrs by immunoblotting analysis; format: cell-based; details: filed as activator
3T3-L1 [18] = test: Inhibition of MDI-cocktail induced adipogenic differentiation in mouse 3T3-L1 pre-adipocyte cells assessed as reduction in FABP4 protein expression at 0.5 to 5 uM by Western blot analysis; format: functional, cell-based; details: dose 0.5-5 µM
Syrian golden hamster [19] = test: Anti-obesity activity in high-fat diet induced Syrian golden hamster model assessed as reduction in lean mass at 50 mg/kg, po administered for 7 days by 1H NMR spectroscopy-based Echo MRI system; format: functional, organism-based; details: Mesocricetus auratus, time 7.0 day
C3H 10T1/2 [20] = test: Anti-adipogenic activity in MDI-cocktail differentiated mouse C3H 10T1/2 cells assessed as reduction in adipogenic differentiation at 5 uM measured after 0 to 3 days by Oil Red O staining based microscopic analysis; format: functional, cell-based; details: time 0-3 day
3T3-L1 [21] = test: Activation of AMPK in mouse 3T3-L1 mature adipocytes assessed as increase in AMPK phosphorylation at Thr172 residue incubated for 24 hrs by Western blot analysis; format: cell-based; details: filed as activator, dose 1-5 µM
3T3-L1 [22] = test: Inhibition of MDI-cocktail induced adipogenic differentiation in mouse 3T3-L1 pre-adipocyte cells assessed as reduction in FABP4 gene expression at 5 uM by qRT-PCR analysis; format: functional, cell-based
3T3-L1 [23] = test: Inhibition of MDI-cocktail induced adipogenic differentiation in mouse 3T3-L1 pre-adipocyte cells assessed as reduction in FASN gene expression at 5 uM by qRT-PCR analysis; format: functional, cell-based
3T3-L1 [24] = test: Anti-adipogenic activity in MDI-cocktail differentiated mouse 3T3-L1 pre-adipocyte cells assessed as reduction in FABP4 protein expression at 5 uM measured for 3 to 7 days by immunoblotting analysis; format: functional, cell-based; details: time 3-7 day
3T3-L1 [25] = test: Upregulation of CIV-MTCO1 protein expression in mouse 3T3-L1 mature adipocytes at 1 to 5 uM incubated for 24 hrs by Western blot analysis; format: functional, cell-based; details: dose 1-5 µM
3T3-L1 [26] = test: Inhibition of MDI-cocktail induced adipogenic differentiation in mouse 3T3-L1 pre-adipocyte cells assessed as reduction in C/EBPalpha protein expression at 0.5 to 5 uM by Western blot analysis; format: functional, cell-based; details: dose 0.5-5 µM
3T3-L1 [27] = test: Inhibition of MDI-cocktail induced adipogenic differentiation in mouse 3T3-L1 pre-adipocyte cells assessed as increase in ACC phosphorylation at Ser79 residue by Western blot analysis; format: functional, cell-based; details: dose 0.5-5 µM
3T3-L1 [28] = test: Induction of cell cycle arrest in MDI-cocktail differentiated mouse 3T3-L1 pre-adipocyte cells assessed as reduction in CDK2 protein expression at 5 uM measured after 16 to 24 hrs by immunoblotting analysis; format: functional, cell-based; details: time 16-24 hrs
3T3-L1 [29] = test: Upregulation of CII-SDHB protein expression in mouse 3T3-L1 mature adipocytes at 1 to 5 uM incubated for 24 hrs by Western blot analysis; format: functional, cell-based; details: dose 1-5 µM
3T3-L1 [30] = test: Induction of mitochondrial membrane potential in mouse 3T3-L1 mature adipocytes assessed as increase in TMRE fluorescence at 1 to 5 uM incubated for 24 hrs by TMRE staining based fluorescence microscopic analysis; format: functional, cell-based; details: dose 1-5 µM
3T3-L1 [31] = test: Induction of cell cycle arrest in MDI-cocktail differentiated mouse 3T3-L1 pre-adipocyte cells assessed as reduction in cyclin D1 protein expression at 5 uM measured after 16 to 24 hrs by immunoblotting analysis; format: functional, cell-based; details: time 16-24 hrs
Syrian golden hamster [32] = test: Hepatoprotective activity in high-fat diet induced Syrian golden hamster model assessed as reduction in serum AST level at 25 to 50 mg/kg, po administered for 7 days; format: functional, organism-based; details: Mesocricetus auratus, dose 25-50 mg/kg, time 7.0 day

## Cc1ccc(-c2cnc(-c3ccc[n+](Cc4cccc(C)c4)c3)o2)cc1.[Br-]
3T3-L1 [1]
  Activity: Active
3T3-L1 [2]
  Activity: Active
Syrian golden hamster [3]
  Activity: Active
Syrian golden hamster [4]
  Activity: Active
3T3-L1 [5]
  Activity: Active
3T3-L1 [6]
  Activity: Active
3T3-L1 [7]
  Activity: Active
3T3-L1 [8]
  inhibition: Dose-Dependent Effect
Syrian golden hamster [9]
  Activity: Active
C3H 10T1/2 [10]
  Activity: Active
3T3-L1 [11]
  inhibition at 20 µM: > 70%
Syrian golden hamster [12]
  Activity: Active
C3H 10T1/2 [13]
  inhibition: Active
3T3-L1 [14]
  Activity: Active
3T3-L1 [15]
  Activity: Active
3T3-L1 [16]
  Activity: Active
3T3-L1 [17]
  Activity: Active
3T3-L1 [18]
  inhibition: Active
Syrian golden hamster [19]
  Activity: Active
C3H 10T1/2 [20]
  Activity: Active
3T3-L1 [21]
  Activity: Dose-Dependent Effect
3T3-L1 [22]
  inhibition: Active
3T3-L1 [23]
  inhibition: Active
3T3-L1 [24]
  Activity: Active
3T3-L1 [25]
  Activity: Active
3T3-L1 [26]
  inhibition: Active
3T3-L1 [27]
  inhibition: Dose-Dependent Effect
3T3-L1 [28]
  Activity: Active
3T3-L1 [29]
  Activity: Active
3T3-L1 [30]
  Activity: Active
3T3-L1 [31]
  Activity: Active
Syrian golden hamster [32]
  Activity: Active
